According to the NIST ThermoML archive (doi:10.1016/j.jct.2014.07.011):
Numbers after ± are expanded uncertainties.

Key:
[1] = Molar enthalpy of transition or fusion; settings: Crystal; DSC
[2] = Crystal; DTA

Molar enthalpy of transition or fusion [1]: 4.96 ± 0.311 kcal/mol
Normal melting temperature [2]: 208.42 ± 1.1 °C
SMILES: CC(=O)S[C@@H]1CC2=CC(=O)CC[C@]2(C)[C@H]2CC[C@@]3(C)[C@@H](CC[C@@]34CCC(=O)O4)[C@H]12 [spironolactone]
